This passage reports Ki results from ChEMBL document CHEMBL1133700, “Chiral nonsteroidal affinity ligands for the androgen receptor. 1. Bicalutamide analogues bearing electrophilic groups in the B aromatic ring” (J Med Chem, 2000).

SMILES strings stand for the structures. Where only a bound is given, the exact number is not on record here.

The target of this assay is T1, Androgen receptor (Rattus norvegicus, UniProt P15207).
T1 sequence (P15207 whole entry): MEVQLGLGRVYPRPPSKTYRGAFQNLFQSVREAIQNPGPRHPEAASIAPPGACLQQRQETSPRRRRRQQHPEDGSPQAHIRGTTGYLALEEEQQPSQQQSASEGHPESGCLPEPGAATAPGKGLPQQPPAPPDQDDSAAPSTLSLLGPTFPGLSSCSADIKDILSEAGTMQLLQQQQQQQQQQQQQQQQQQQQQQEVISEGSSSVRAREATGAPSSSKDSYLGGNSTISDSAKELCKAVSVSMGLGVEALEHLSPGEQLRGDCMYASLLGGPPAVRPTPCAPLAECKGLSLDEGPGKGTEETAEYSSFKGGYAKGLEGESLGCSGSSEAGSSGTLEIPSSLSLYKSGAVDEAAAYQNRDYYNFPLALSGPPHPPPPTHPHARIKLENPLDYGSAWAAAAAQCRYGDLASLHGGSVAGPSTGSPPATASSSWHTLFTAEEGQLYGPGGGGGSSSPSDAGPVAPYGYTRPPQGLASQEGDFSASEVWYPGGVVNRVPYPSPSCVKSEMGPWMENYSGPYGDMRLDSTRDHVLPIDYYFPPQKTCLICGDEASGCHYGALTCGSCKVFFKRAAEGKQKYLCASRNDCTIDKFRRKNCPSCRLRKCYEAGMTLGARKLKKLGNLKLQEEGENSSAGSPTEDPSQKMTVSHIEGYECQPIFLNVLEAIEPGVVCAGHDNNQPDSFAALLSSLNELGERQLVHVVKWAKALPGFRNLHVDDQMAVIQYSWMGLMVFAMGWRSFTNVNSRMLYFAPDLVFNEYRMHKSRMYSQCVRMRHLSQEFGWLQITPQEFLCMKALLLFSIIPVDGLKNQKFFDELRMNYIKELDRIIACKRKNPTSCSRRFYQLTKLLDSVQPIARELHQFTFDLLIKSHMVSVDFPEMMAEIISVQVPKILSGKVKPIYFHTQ
Briefly: Binding Affinity towards Rat Androgen Receptor was determined using [3H]- mibolerone as radioligand.

Broadly, the Ki is the dissociation constant of the complex between target and ligand, obtained from inhibition or displacement. Low values mean tighter binding, high ones weaker binding. Take `C[C@](O)(CSc1cccc(NC(=O)CCl)c1)C(=O)Nc1ccc(C#N)c(C(F)(F)F)c1`: the Ki is greater than 1000 nM.

In turn, `C[C@](O)(CS(=O)(=O)c1ccc(N=C=S)cc1)C(=O)Nc1ccc(C#N)c(C(F)(F)F)c1` gave a Ki of 41 nM.

`C[C@](O)(CS(=O)(=O)c1cccc(NC(=O)CCl)c1)C(=O)Nc1ccc(C#N)c(C(F)(F)F)c1` registered a Ki of 130 nM.

With `C[C@](O)(CSc1cccc(NC(=O)CBr)c1)C(=O)Nc1ccc(C#N)c(C(F)(F)F)c1`, the Ki was greater than 1000 nM.
